Common to all, as to format: biochemical
In experiment [1] the target is MMP-13CD (catalytic domain of collagenase 3) (Homo sapiens, UniProt P45452). Description: Thiopeptolide substrate hydrolysis assay, MMP-13CD. From the text:
(§1) Thiopeptolide substrates show virtually no decomposition or hydrolysis at or below neutral pH in the absence of a matrix metalloproteinase enzyme.

The target of experiment [2] is T1, MMP-2FL (full length Gelatinase A) (Homo sapiens, UniProt P08253).
T1 sequence (P08253 110-660): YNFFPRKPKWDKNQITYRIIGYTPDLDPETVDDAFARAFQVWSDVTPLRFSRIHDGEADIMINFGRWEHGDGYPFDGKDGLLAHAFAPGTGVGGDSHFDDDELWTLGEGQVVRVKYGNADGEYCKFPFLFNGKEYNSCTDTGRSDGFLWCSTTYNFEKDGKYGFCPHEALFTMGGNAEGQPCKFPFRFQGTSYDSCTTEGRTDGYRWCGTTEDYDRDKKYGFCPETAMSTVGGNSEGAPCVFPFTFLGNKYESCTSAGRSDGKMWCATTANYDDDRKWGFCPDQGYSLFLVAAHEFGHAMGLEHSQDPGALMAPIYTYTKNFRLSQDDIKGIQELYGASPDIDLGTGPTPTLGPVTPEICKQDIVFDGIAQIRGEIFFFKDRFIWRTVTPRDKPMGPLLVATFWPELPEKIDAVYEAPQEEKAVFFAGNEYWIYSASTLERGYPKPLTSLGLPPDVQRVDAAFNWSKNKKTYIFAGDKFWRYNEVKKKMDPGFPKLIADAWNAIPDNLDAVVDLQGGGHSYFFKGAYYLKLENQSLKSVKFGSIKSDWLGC
The experiment in a line: Thiopeptolide substrate hydrolysis assay, MMP-2FL. To be noted: HEPES pH 7.0, 22° C., read-out: IC50 (μM) Versus Certain MMPs: MMP-02 FL.
Excerpt: (§2) The invention compounds of Formula I have been evaluated in standard assays for their ability to inhibit the catalytic activity of various MMP enzymes.
as §1
(§3) Several representative compounds have been evaluated for their ability to inhibit various matrix metalloproteinase enzymes.

Experiment [3] concerns the target T2, MMP-7FL (full length matrilysin) (Homo sapiens, UniProt P09237).
T2 sequence (P09237 95-267): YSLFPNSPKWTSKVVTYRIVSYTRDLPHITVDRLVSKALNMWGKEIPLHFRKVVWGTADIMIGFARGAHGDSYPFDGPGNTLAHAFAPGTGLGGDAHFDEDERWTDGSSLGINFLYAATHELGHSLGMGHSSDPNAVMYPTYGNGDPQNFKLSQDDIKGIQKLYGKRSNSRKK
Description: Thiopeptolide substrate hydrolysis assay, MMP-7FL. To be noted: HEPES pH 7.0, 22° C., read-out: IC50 (μM) Versus Certain MMPs: MMP-07 FL.
Excerpt: as §2, §1, §3

Experiment [4] concerns the target MMP-9FL (full length Gelatinase B) (Homo sapiens, UniProt P14780). The experiment in a line: Thiopeptolide substrate hydrolysis assay, MMP-9FL. To be noted: HEPES pH 7.0, 22° C., read-out: IC50 (μM) Versus Certain MMPs: MMP-09 FL.
Excerpt: as §2, §1, §3

Experiment [5] deals with MMP-14CD (catalytic domain of MMP-14) (Homo sapiens, UniProt P50281). The experiment in a line: Thiopeptolide substrate hydrolysis assay, MMP-14CD. To be noted: HEPES pH 7.0, 22° C., read-out: IC50 (μM) Versus Certain MMPs: MMP-14 CD.
Excerpt: as §2, §1, §3

[6] abbreviates: IC50 (μM) Versus Certain MMPs: MMP-13 CD, thiopeptolide substrate, HEPES pH 7.0, 22° C.

Counter-ions that a name gives are not always drawn. A value given as a limit tells only on which side of the number the result lay.

MMP-9FL (full length Gelatinase B), sequence (P14780 94-707, species assumed): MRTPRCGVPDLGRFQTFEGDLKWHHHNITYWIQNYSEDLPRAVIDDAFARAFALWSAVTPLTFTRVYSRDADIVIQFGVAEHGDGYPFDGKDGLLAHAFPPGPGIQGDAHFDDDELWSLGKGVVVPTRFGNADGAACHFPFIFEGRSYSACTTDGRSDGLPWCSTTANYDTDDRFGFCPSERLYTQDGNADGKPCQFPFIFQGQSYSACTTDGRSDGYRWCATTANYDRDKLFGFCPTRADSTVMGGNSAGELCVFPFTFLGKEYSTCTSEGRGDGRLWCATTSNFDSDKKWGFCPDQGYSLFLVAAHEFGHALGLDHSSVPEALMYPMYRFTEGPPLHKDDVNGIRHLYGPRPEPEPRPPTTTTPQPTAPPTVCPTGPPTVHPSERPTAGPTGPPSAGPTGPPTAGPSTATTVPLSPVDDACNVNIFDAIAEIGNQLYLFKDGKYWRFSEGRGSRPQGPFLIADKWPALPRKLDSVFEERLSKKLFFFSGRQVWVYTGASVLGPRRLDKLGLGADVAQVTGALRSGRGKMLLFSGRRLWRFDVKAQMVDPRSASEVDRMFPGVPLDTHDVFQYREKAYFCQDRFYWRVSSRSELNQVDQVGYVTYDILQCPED

Take `Cc1cccc(CNC(=O)c2cn3c(=O)n(Cc4ccccc4)c(=O)c(C)c3s2)n1` [Example 41, 6-Benzyl-8-methyl-5,7-dioxo-6,7-dihydro-5H-thiazolo[3,2-c]pyrimidine-2-carboxylic acid(6-methyl-pyridin-2-ylmethyl)-amide]: the midpoint of inhibition in experiment [1] (setting [6]), the IC50, lay at 6.2 µM.
As to `COc1cc(CNC(=O)c2cn3c(=O)n(Cc4ccc(F)c(F)c4)c(=O)c(C)c3s2)ccn1` [Example 114, 6-(3,4-Fluoro-benzyl)-8-methyl-5,7-dioxo-6,7-dihydro-5H-thiazolo[3,2-c]pyrimidine-2-carboxylic acid(2-methoxy-pyridin-4-ylmethyl)-amide hydrochloride], in experiment [1] (IC50 inhibition of MMP-13CD, running text after Table 1), the IC50 – broadly, the concentration that gives 50% inhibition – was 0.0155 µM.
The compound `Cc1c(=O)n(Cc2ccccc2)c(=O)n2cc(C(=O)NCc3cn4ccsc4n3)sc12` [Example 38, 6-Benzyl-8-methyl-5,7-dioxo-6,7-dihydro-5H-thiazolo[3,2-c]pyrimidine-2-carboxylic acid(imidazo[2,1-b]thiazol-6-ylmethyl)-amide] yielded an IC50 in experiment [1] (setting [6]) of 25 µM.
Take `O=C(OCc1ccccc1)C1CSc2cc(=O)n(Cc3ccccc3)c(=O)n21` (stereo not drawn) [Example 20, 6-Benzyl-5,7-dioxo-2,3,6,7-tetrahydro-5H-thiazolo[3,2-c]pyrimidine-3-carboxylic acid benzyl ester]: the “IC50 (μM) Versus Certain MMPs: MMP-13 CD” value in experiment [1] (thiopeptolide substrate, HEPES pH 7.0, 22° C.) was “none”.
As for `Cc1c(=O)n(Cc2ccc(C(=O)OCCN(C)C)cc2)c(=O)n2cc(C(=O)NCc3ccncc3)sc12` [Example 63, 4-{8-Methyl-5,7-dioxo-2-[(pyridin-4-ylmethyl)-carbamoyl]-7H-thiazolo[3,2-c]pyrimidin-6-ylmethyl}-benzoic acid 2-dimethylamino-ethyl ester dihydrochloride], the IC50 in experiment [2], in experiment [3], in experiment [4] and in experiment [5] was above 100 µM each time.
`Cc1c(=O)n(Cc2ccccc2)c(=O)n2cc(C(=O)NCc3ccncc3)sc12` [Example 36, 6-Benzyl-8-methyl-5,7-dioxo-6,7-dihydro-5H-thiazolo[3,2-c]pyrimidine-2-carboxylic acid(pyridin-4-ylmethyl)-amide hydrochloride]: the concentration for half-maximal inhibition (IC50) was above 100 µM in experiment [2], above 100 µM in experiment [3], above 30 µM in experiment [4] and above 100 µM in experiment [5].
For `Cc1c(=O)n(Cc2ccccc2)c(=O)n2cc(C(=O)NCc3ccc(OC(F)(F)F)cc3)sc12` [Example 51, 6-Benzyl-8-methyl-5,7-dioxo-6,7-dihydro-5H-thiazolo[3,2-c]pyrimidine-2-carboxylic acid 4-trifluoromethoxy-benzylamide], the half-inhibitory concentration (IC50) in experiment [2] is above 30 µM; in experiment [3], above 30 µM; in experiment [4], above 100 µM; in experiment [5], above 100 µM.
Take `Cc1c(=O)n(Cc2ccc(F)cc2)c(=O)n2cc(C(=O)NCc3ccncc3)sc12` [Example 70, 6-(4-Fluoro-benzyl)-8-methyl-5,7-dioxo-6,7-dihydro-5H-thiazolo[3,2-c]pyrimidine-2-carboxylic acid(pyridin-4-ylmethyl)-amide hydrochloride]: the half-maximal inhibitory concentration (IC50) in experiment [2], in experiment [3], in experiment [4] and in experiment [5] was above 30 µM each time.
As to `Cc1c(=O)n(Cc2ccc(Br)cc2)c(=O)n2cc(C(=O)NCc3ccncc3)sc12` [Example 71, 6-(4-Bromo-benzyl)-8-methyl-5,7-dioxo-6,7-dihydro-5H-thiazolo[3,2-c]pyrimidine-2-carboxylic acid(pyridin-4-ylmethyl)-amide hydrochloride], the IC50 in experiment [2], in experiment [3], in experiment [4] and in experiment [5] was above 30 µM each time.
Turning to `COC(=O)Nc1cc(Cn2c(=O)c(C)c3sc(C(=O)NCc4ccc(F)cc4)cn3c2=O)on1` [Example 74, {5-[2-(4-Fluoro-benzylcarbamoyl)-8-methyl-5,7-dioxo-7H-thiazolo[3,2-c]pyrimidin-6-ylmethyl]-isoxazol-3-yl}-carbamic acid methyl ester], the IC50 in experiment [2] is above 30 µM; in experiment [3], 87 µM; in experiment [4], above 30 µM; in experiment [5] it was above 30 µM.
For the compound `O=C(NCc1ccncc1)C1Cn2c(cc(=O)n(Cc3ccccc3)c2=O)S1` (stereo not drawn) [Example 22, 6-Benzyl-5,7-dioxo-2,3,6,7-tetrahydro-5H-thiazolo[3,2-c]pyrimidine-2-carboxylic acid(pyridin-4-ylmethyl)-amide], the IC50 in experiment [2], in experiment [3], in experiment [4] and in experiment [5] was above 100 µM each time.
As to `Cc1c(=O)n(Cc2ccc(S(N)(=O)=O)cc2)c(=O)n2cc(C(=O)NCc3ccncc3)sc12` [Example 84, 8-Methyl-5,7-dioxo-6-(4-sulfamoyl-benzyl)-6,7-dihydro-5H-thiazolo[3,2-c]pyrimidine-2-carboxylic acid(pyridin-4-ylmethyl)-amide hydrochloride], the IC50 in experiment [2], in experiment [3], in experiment [4] and in experiment [5] was above 100 µM throughout.
Take `Cc1c(=O)n(Cc2ccc(C(=O)N3CCOCC3)cc2)c(=O)n2cc(C(=O)NCc3ccncc3)sc12` [Example 73, 8-Methyl-6-[4-(morpholine-4-carbonyl)-benzyl]-5,7-dioxo-6,7-dihydro-5H-thiazolo[3,2-c]pyrimidine-2-carboxylic acid(pyridin-4-ylmethyl)-amide hydrochloride]: the IC50 in experiment [2] was above 100 µM; in experiment [3], above 100 µM; in experiment [4], above 100 µM; in experiment [5], above 30 µM.
With `O=C(OCc1ccccc1)C1C[S+]([O-])c2cc(=O)n(Cc3ccccc3)c(=O)n21` (stereo not drawn) [Example 23, 6-Benzyl-1,5,7-trioxo-1,2,3,5,6,7-hexahydro-114-thiazolo[3,2-c]pyrimidine-3-carboxylic acid benzyl ester], the IC50 in experiment [2], in experiment [3], in experiment [4] and in experiment [5] was above 100 µM in each case.
As for `COc1cccc(CNC(=O)c2cn3c(=O)n(Cc4ccccc4)c(=O)c(C)c3s2)c1` [Example 109, 6-Benzyl-8-methyl-5,7-dioxo-6,7-dihydro-5H-thiazolo[3,2-c]pyrimidine-2-carboxylic acid 3-methoxy-benzylamide], the IC50 in experiment [2], in experiment [3], in experiment [4] and in experiment [5] was above 30 µM each time.
In the case of `Cc1c(=O)n(Cc2ccc(Cl)cc2)c(=O)n2cc(C(=O)NCc3ccncc3)sc12` [Example 72, 6-(4-Chloro-benzyl)-8-methyl-5,7-dioxo-6,7-dihydro-5H-thiazolo[3,2-c]pyrimidine-2-carboxylic acid(pyridin-4-ylmethyl)-amide], the IC50 in experiment [2], in experiment [3], in experiment [4] and in experiment [5] was above 30 µM each time.
For the compound `Cc1c(=O)n(Cc2ccc(C(=O)N3CCOCC3)cc2)c(=O)n2cc(C(=O)NCc3ccc(F)cc3)sc12` [Example 76, 8-Methyl-6-[4-(morpholine-4-carbonyl)-benzyl]-5,7-dioxo-6,7-dihydro-5H-thiazolo[3,2-c]pyrimidine-2-carboxylic acid 4-fluoro-benzylamide], the IC50 in experiment [2], in experiment [3], in experiment [4] and in experiment [5] was above 30 µM throughout.
In the case of `Cc1c(=O)n(Cc2ccc3cc(F)ccc3n2)c(=O)n2cc(C(=O)NCc3ccc(F)cc3)sc12` [Example 77, 6-(6-Fluoro-quinolin-2-ylmethyl)-8-methyl-5,7-dioxo-6,7-dihydro-5H-thiazolo[3,2-c]pyrimidine-2-carboxylic acid 4-fluoro-benzylamide], the IC50 in experiment [2], in experiment [3], in experiment [4] and in experiment [5] was above 30 µM in each case.

Source of the values: patent US20060040957A1, “BICYCLIC PYRIMIDINE MATRIX METALLOPROTEINASE INHIBITORS” (priority 2001, published 2006).
